One assay has as its target T1, rat TRPV1 (Rattus norvegicus, UniProt O35433).
T1 construct: expressed in transfected cells; host or cells: CHO, constitutive expression, co-transfected with aequorin
Nature of the assay: Luminescence (aequorin) readout of intracellular calcium, CHO cells expressing rat TRPV1, capsaicin activation. Type of assay: cell-based. As to conditions: 0.5 uM capsaicin, read-out: rTRPV1 IC50. From the text:
Stable Chinese hamster ovary (CHO) cell lines expressing rat TRPA1, rat TRPM8, rat TRPV3, and human TRPV4 were generated using the tetracycline-inducible T-REx™ expression system from Invitrogen (Carlsbad, CA) and a stable CHO cell line expressing rat TRPV1 was generated using a constitutive expression system (Klionsky et al. [2007]). To enable a luminescence readout based on intracellular increase in calcium (Le Poul et al. [2002]), each cell line was also co-transfected with pcDNA3.1 plasmid containing jelly fish aequorin cDNA. Twenty-four hours before the assay, cells were seeded in 96-well plates and all TRP channel expression, except for TRPV1, was induced with 0.5 ug/mL tetracycline. […] Luminescence was measured by a CCD camera-based FLASH-luminometer built by Amgen, Inc. The following agonists were used to activate TRP channels: 0.5 uM capsaicin for TRPV1, 80 uM allyl isothiocyanate (AITC) for TRPA1, 1 uM icilin or cold buffer (12 °C) for TRPM8, 200 uM aminoethoxydiphenyl borate (2-APB) for TRPV3, and 1 uM 4α-phorbol 12,13-didecanoate (4α-PDD) for TRPV4. Antagonist IC50 values were calculated using GraphPad Prism 4.01 (GraphPad Software Inc, San Diego, CA).
(In general: A change in cytosolic calcium serves as a functional read-out for many receptors and channels.)

In assay [1] the test system is TRPM8 on cutaneous nerve terminals (C fibers). Nature of the assay: Skin-nerve preparation, menthol-evoked activation of C fibers. Details: species or system mouse. As to conditions: 10 μM; 300 μM menthol; n = 22; p = 0.005. From the text:
Adult C57BL/6 mice were obtained from Jackson Laboratories and used for ex vivo skin-nerve preparations. Mice were allowed to acclimate to the animal facility at the Medical College of Wisconsin, an Association for the Assessment and Accreditation of Laboratory Animal […] (AALAC)-accredited facility, for approximately 1 week following shipment. Animals were housed with up to four other cagemates and had ad libitum access to food pellets and hyper-chlorinated water. Mice were housed on a 14:10 h light-dark cycle in cages containing aspen bedding and paper nesting material. Room temperatures averaged 21 °C. Prior to use, animals were briefly anesthetized with inhaled isoflurane and then sacrificed via cervical dislocation.
The mouse saphenous skin-nerve in vitro preparation (Koltzenburg et al. [1997]; Stucky et al. [1999]) was used for electrophysiological recordings of cutaneous terminals of primary afferent fibers in situ. […] Once a unit with a signal to noise ratio >2 was identified, the mechanical threshold was determined using calibrated von Frey filaments (range, 0.44–147.0 mN). […]
Wave forms of action potentials evoked by mechanical stimuli were saved on an oscilloscope for comparison of shape and profile. […] Action potentials were discriminated and counted off-line using a spike histogram software extension. […] All data was also analyzed in a blinded manner.

For assay [2], the system named is TRPM8-mediated icilin-induced wet-dog shakes in rats. Kind of assay: Icilin-induced wet-dog shake (WDS) model. Format: in vivo, rat. How it is done:
The TRPM8 antagonist (1, 3, or 10 mg/kg) or vehicle control (5 % Tween 80 in OraPlus®) was administered p.o. 90 min prior to administration of icilin (0.5 mg/kg, 1 ml/kg, i.p., 100 % PEG 400). […] Rats were viewed through transparent Plexiglas® observation cylinders that were placed on a custom, opaque, plastic apparatus such that one rat could not view another rat.
In vivo IC50 and IC90 estimates using WDS model data were determined by fitting a sigmoidal dose-response curve to individual animal number of WDS versus resulting plasma concentration. Behavioral and electrophysiological data are expressed as mean ± standard error of the mean (S.E.M.). Results were analyzed using one-way analysis of variance (ANOVA) with Dunnett’s multiple-comparisons post-hoc test for significance relative to vehicle. […] Actual gram values are plotted on a logarithmic scale Y-axis of the figures for convenience. Statistical calculations and graphs were made using GraphPad Prism 5.01 (GraphPad Software Inc, San Diego, CA). Percent responders to menthol stimulation in the ex vivo skin-nerve preparation were compared under vehicle and antagonist conditions through the use of Fisher’s exact test. Responses of C fibers to increasing mechanical forces under vehicle or antagonist conditions were compared using a two-way ANOVA with a Bonferonni post-hoc analysis.

This is an account of results in article PMC4359714 (Naunyn-Schmiedeberg's Archives of Pharmacology, 2015).

T1 sequence (O35433 whole entry): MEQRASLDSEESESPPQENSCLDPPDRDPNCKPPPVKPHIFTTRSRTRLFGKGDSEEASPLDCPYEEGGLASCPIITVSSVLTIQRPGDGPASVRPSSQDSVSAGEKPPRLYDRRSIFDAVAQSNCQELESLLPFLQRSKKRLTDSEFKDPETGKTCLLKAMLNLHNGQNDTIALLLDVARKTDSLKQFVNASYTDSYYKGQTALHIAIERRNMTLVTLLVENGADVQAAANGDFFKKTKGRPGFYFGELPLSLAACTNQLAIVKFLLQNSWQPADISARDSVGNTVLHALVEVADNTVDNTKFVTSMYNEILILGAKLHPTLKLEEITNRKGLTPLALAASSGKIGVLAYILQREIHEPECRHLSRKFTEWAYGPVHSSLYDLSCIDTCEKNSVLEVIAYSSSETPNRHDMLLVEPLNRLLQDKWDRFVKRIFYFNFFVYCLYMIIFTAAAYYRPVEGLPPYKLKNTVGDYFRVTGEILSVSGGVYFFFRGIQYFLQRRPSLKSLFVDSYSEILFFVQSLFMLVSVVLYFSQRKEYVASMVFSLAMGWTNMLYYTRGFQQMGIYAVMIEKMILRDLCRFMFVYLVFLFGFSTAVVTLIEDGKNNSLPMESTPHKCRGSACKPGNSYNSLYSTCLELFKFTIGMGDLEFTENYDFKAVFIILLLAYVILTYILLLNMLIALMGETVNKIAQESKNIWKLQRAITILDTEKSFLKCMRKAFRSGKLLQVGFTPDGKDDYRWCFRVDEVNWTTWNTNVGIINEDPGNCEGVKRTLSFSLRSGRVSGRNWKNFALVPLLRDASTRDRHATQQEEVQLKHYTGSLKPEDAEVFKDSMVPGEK

For orientation: IC50 means the concentration that inhibits the measured activity by half. What is called IC90 is the concentration at which the effect reaches the 90% level. As usually defined, the ED50 is the dose that gives a 50% effect, or the effect in half of the subjects. Take `C[C@H](NC(=O)N1CCc2cccnc2[C@H]1c1ccc(C(F)(F)F)cc1)C(F)(F)F` [AMG2850, (R)-8-(4-(trifluoromethyl)phenyl)-N-((S)-1,1,1-trifluoropropan-2-yl)-5,6-dihydro-1,7-naphthyridine-7(8H)-carboxamide]: on rat TRPV1, the 50% inhibitory concentration (IC50) was more than 25000 nM. Further, the “effect on menthol-evoked firing of C fibers” value in assay [1] was “completely inhibited all menthol-evoked firing”. Also, in assay [2] (10 mg/kg p.o., 90 min before icilin 0.5 mg/kg i.p.), the “prevention of icilin-induced WDS” value is given as “Full prevention”. Besides, in assay [2] (Rattus norvegicus, ip, unbound plasma concentration, icilin 0.5 mg/kg i.p., read-out: Rat PD IC90 (unbound mean in vivo IC90, WDS model)), the 90% effect concentration (IC90) is 99 nM. Moreover, the median effective dose (ED50) in assay [2] (Rattus norvegicus, p.o., icilin 0.5 mg/kg i.p., read-out: Rat PD ED50) was determined as 1.8 mg/kg.
